Measurements: US8247211B2, “Glycopeptide antibiotics” (American Cyanamid Company, priority 2001, dated 2012)
In brackets after ≈: the same amount, converted by molar mass.

Columns and labels:
Test in all cases: In vitro antibacterial evaluation: minimum inhibitory concentration (MIC), broth dilution method
Assay type in all cases: cell-based
Enterococcus sp. = tested on: Enterococcus sp.
Outline: (§1)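 Inoculum: 5×10^5 CFU/mL. Range: 64-0.06 μg/mL. Medium: Muller-Hinton II […]; NCCLS M7-A2 broth dilution. Endpoint: lowest concentration inhibiting growth. Strains include methicillin-, penicillin- and/or vancomycin-resistant clinical isolates.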

Staphylococcus sp. = details: for MIC Staphylococcus aureus (ATCC 29213) / MIC Staphylococcus aureus (GC 1131) / MIC Staphylococcus aureus (GC 3051) / MIC Staphylococcus aureus (GC 3053) / MIC Staphylococcus aureus (GC 4541) / MIC Staphylococcus aureus (GC 4542) / MIC Staphylococcus aureus (GC 4544) / MIC Staphylococcus aureus (GC 4545): broth dilution, 18 hours at 35° C.
Outline: as §1

Escherichia coli = tested on: Escherichia coli
Outline: as §1

Streptococcus sp. = tested on: Streptococcus sp.
Outline: as §1

[1] = broth dilution, inoculum 5×10^5 CFU/mL, 18 hours at 35° C.

MIC Enterococcus avium (GC 4558) (Enterococcus sp.; [1]): 4 µg/mL (≈ 2.61 µM)
MIC Enterococcus faecalis (ATCC 29212) (Enterococcus sp.; [1]): 2 µg/mL (≈ 1.31 µM)
MIC Enterococcus faecalis (GC 2242) (Enterococcus sp.; [1]): 2 µg/mL (≈ 1.31 µM)
MIC Enterococcus faecalis (GC 2691) (Enterococcus sp.; [1]): 4 µg/mL (≈ 2.61 µM)
MIC Enterococcus faecalis (GC 3059) (Enterococcus sp.; [1]): 4 µg/mL (≈ 2.61 µM)
MIC Enterococcus faecalis (GC 4552) (Enterococcus sp.; [1]): 2 µg/mL (≈ 1.31 µM)
MIC Enterococcus faecalis (GC 4553) (Enterococcus sp.; [1]): 1 µg/mL (≈ 0.653 µM)
MIC Enterococcus faecalis (GC 4554) (Enterococcus sp.; [1]): 2 µg/mL (≈ 1.31 µM)
MIC Enterococcus faecalis (GC 6189) (Enterococcus sp.; [1]): 2 µg/mL (≈ 1.31 µM)
MIC Enterococcus faecium (GC 2243) (Enterococcus sp.; [1]): 2 µg/mL (≈ 1.31 µM)
MIC Enterococcus faecium (GC 4556) (Enterococcus sp.; [1]): 4 µg/mL (≈ 2.61 µM)
MIC Enterococcus faecium (GC 4557) (Enterococcus sp.; [1]): 4 µg/mL (≈ 2.61 µM)
MIC Enterococcus faecalis (ATCC 29212) (Enterococcus sp.; strain ATCC 29212): 2 µg/mL (≈ 1.31 µM)
MIC Enterococcus faecalis (GC 2242) (Enterococcus sp.; strain GC 2242): 2 µg/mL (≈ 1.31 µM)
MIC Enterococcus faecium (GC 2243) (Enterococcus sp.; strain GC 2243): 2 µg/mL (≈ 1.31 µM)
MIC Enterococcus faecalis (GC 2691) (Enterococcus sp.; strain GC 2691): 4 µg/mL (≈ 2.61 µM)
MIC Enterococcus faecalis (GC 3059) (Enterococcus sp.; strain GC 3059): 4 µg/mL (≈ 2.61 µM)
MIC Enterococcus faecalis (GC 4552) (Enterococcus sp.; strain GC 4552): 2 µg/mL (≈ 1.31 µM)
MIC Enterococcus faecalis (GC 4553) (Enterococcus sp.; strain GC 4553): 1 µg/mL (≈ 0.653 µM)
MIC Enterococcus faecalis (GC 4554) (Enterococcus sp.; strain GC 4554): 2 µg/mL (≈ 1.31 µM)
MIC Enterococcus faecium (GC 4556) (Enterococcus sp.; strain GC 4556): 4 µg/mL (≈ 2.61 µM)
MIC Enterococcus faecium (GC 4557) (Enterococcus sp.; strain GC 4557): 4 µg/mL (≈ 2.61 µM)
MIC Enterococcus avium (GC 4558) (Enterococcus sp.; strain GC 4558): 4 µg/mL (≈ 2.61 µM)
MIC Enterococcus faecalis (GC 6189) (Enterococcus sp.; strain GC 6189): 2 µg/mL (≈ 1.31 µM)
MIC Staphylococcus aureus (ATCC 29213) (Staphylococcus sp.; 5×10^5 CFU/mL): 4 µg/mL (≈ 2.61 µM)
MIC Staphylococcus aureus (GC 1131) (Staphylococcus sp.; 5×10^5 CFU/mL): 4 µg/mL (≈ 2.61 µM)
MIC Staphylococcus aureus (GC 3051) (Staphylococcus sp.; 5×10^5 CFU/mL): 4 µg/mL (≈ 2.61 µM)
MIC Staphylococcus aureus (GC 3053) (Staphylococcus sp.; 5×10^5 CFU/mL): 4 µg/mL (≈ 2.61 µM)
MIC Staphylococcus aureus (GC 4541) (Staphylococcus sp.; 5×10^5 CFU/mL): 4 µg/mL (≈ 2.61 µM)
MIC Staphylococcus aureus (GC 4542) (Staphylococcus sp.; 5×10^5 CFU/mL): 4 µg/mL (≈ 2.61 µM)
MIC Staphylococcus aureus (GC 4544) (Staphylococcus sp.; 5×10^5 CFU/mL): 4 µg/mL (≈ 2.61 µM)
MIC Staphylococcus aureus (GC 4545) (Staphylococcus sp.; 5×10^5 CFU/mL): 4 µg/mL (≈ 2.61 µM)
MIC Staphylococcus aureus (ATCC 29213) (Staphylococcus sp.; strain ATCC 29213): 4 µg/mL (≈ 2.61 µM)
MIC Staphylococcus aureus (GC 1131) (Staphylococcus sp.; strain GC 1131): 4 µg/mL (≈ 2.61 µM)
MIC Staphylococcus aureus (GC 3051) (Staphylococcus sp.; strain GC 3051): 4 µg/mL (≈ 2.61 µM)
MIC Staphylococcus aureus (GC 3053) (Staphylococcus sp.; strain GC 3053): 4 µg/mL (≈ 2.61 µM)
MIC Staphylococcus aureus (GC 4541) (Staphylococcus sp.; strain GC 4541): 4 µg/mL (≈ 2.61 µM)
MIC Staphylococcus aureus (GC 4542) (Staphylococcus sp.; strain GC 4542): 4 µg/mL (≈ 2.61 µM)
MIC Staphylococcus aureus-SMITH (GC 4543) (Staphylococcus sp.; strain GC 4543): 4 µg/mL (≈ 2.61 µM)
MIC Staphylococcus aureus (GC 4544) (Staphylococcus sp.; strain GC 4544): 4 µg/mL (≈ 2.61 µM)
MIC Staphylococcus aureus (GC 4545) (Staphylococcus sp.; strain GC 4545): 4 µg/mL (≈ 2.61 µM)
MIC Coagulase Negative Staphylococcus (GC 4547) (Staphylococcus sp.; strain GC 4547): 8 µg/mL (≈ 5.22 µM)
MIC Coagulase Negative Staphylococcus (GC 4548) (Staphylococcus sp.; strain GC 4548): 2 µg/mL (≈ 1.31 µM)
MIC Coagulase Negative Staphylococcus (GC 4549) (Staphylococcus sp.; strain GC 4549): 1 µg/mL (≈ 0.653 µM)
MIC Coagulase Negative Staphylococcus (GC 4551) (Staphylococcus sp.; strain GC 4551): 2 µg/mL (≈ 1.31 µM)
MIC Coagulase Negative Staphylococcus (GC 6257) (Staphylococcus sp.; strain GC 6257): 2 µg/mL (≈ 1.31 µM)
MIC Escherichia coli (ATCC 25922) (Escherichia coli; strain ATCC 25922): >64 µg/mL
MIC Escherichia coli (GC 4559) (Escherichia coli; strain GC 4559): >64 µg/mL
MIC Escherichi coli (GC 4560) (Escherichia coli; strain GC 4560): 16 µg/mL (≈ 10.4 µM)
MIC Streptococcus agalactiae (GC 4564) (Streptococcus sp.; [1]): <0.06 µg/mL
MIC Streptococcus pneumoniae (ATCC 6301) (Streptococcus sp.; [1]): <0.06 µg/mL
MIC Streptococcus pneumoniae (GC 1894) (Streptococcus sp.; [1]): <0.06 µg/mL
MIC Streptococcus pneumoniae (GC 4565) (Streptococcus sp.; [1]): <0.06 µg/mL
MIC Streptococcus pyogenes (GC 4563) (Streptococcus sp.; [1]): 0.5 µg/mL (≈ 0.326 µM)
MIC Streptococcus pneumoniae (ATCC 6301) (Streptococcus sp.; strain ATCC 6301): <0.06 µg/mL
MIC Streptococcus pneumoniae (GC 1894) (Streptococcus sp.; strain GC 1894): <0.06 µg/mL
MIC Streptococcus pyogenes (GC 4563) (Streptococcus sp.; strain GC 4563): 0.5 µg/mL (≈ 0.326 µM)
MIC Streptococcus agalactiae (GC 4564) (Streptococcus sp.; strain GC 4564): <0.06 µg/mL
MIC Streptococcus pneumoniae (GC 4565) (Streptococcus sp.; strain GC 4565): <0.06 µg/mL
SMILES: CC(c1ccccc1)C1NC(=O)CNC(=O)C(CO)NC(=O)C(C(O)C2CNC(=N)N2C2OC(CO)C(O)C(O)C2O)NC(=O)C(C(O)C2CNC(=N)N2)NC(=O)C(Cc2ccc(OC3OC(CO)C(OC4OC5COC(c6ccc(Oc7ccc(C(C)(C)C)cc7)cc6)OC5C(O)C4O)C(O)C3O)cc2)NC1=O (stereo not drawn) [Example 181, Cyclo[glycyl-β-methylphenylalanyl-O-[4-O-[4,6-O-[4-(4-tert-butylphenoxy)benzylidene]hexopyranosyl]hexopyranosyl]tyrosyl-3-(2-iminoimidazolidin-4-yl)seryl-3-(3-hexopyranosyl-2-iminoimidazolidin-4-yl)serylseryl]]
MIC Staphylococcus haemolyticus (GC 4546) (Staphylococcus sp.; strain GC 4546): 8 µg/mL (≈ 5.22 µM)
